In test [1] the test system is rGDA/IT bacteria culture (GDA/CIT/MIT-resistant). The test is classed as cell-based, Pseudomonas. The note with it: no BM1, GNCCS, one inoculation. As for the experimental part:
(§1) All quoted bacterial counts (Total Viable Count (TVC) values are in cfu/ml) in the Tables herebelow are determined after 48 hours following plate-out and in accordance with the counting method described in “Bestimmung von aeroben mesophilen Keimen”, Schweizerisches Lebensmittelbuch, chapter 56, section 7.01, edition of 1985, revised version of 1988.
BM1 and ethylene diamine (hereafter “EDA”) were introduced into 50 g samples of each of the slurries indicated in Table 1 in the listed amounts (quoted in ppm based on the weight of the aqueous phase in the slurry). The samples were then stored at 30° C. for 72 hours. References were prepared according to the same protocol but in absence of EDA and in absence of EDA and BM1.
The slurry samples were then inoculated with 1 ml of a mixture of rGDA/IT bacteria culture. Each of the samples was incubated at 30° C. for 24 hours. Thereafter, a 1:10 dilution in phosphate buffered saline (PBS) was plated on plate count agar (PCA). These plates were incubated at 30° C. and analysed after 48 hours.
The biocide-resistant calcium carbonate slurry culture rGDA/IT is GDA/CIT/MIT-resistant and was obtained from product storage tanks located at white mineral dispersion (WMD) manufacturing plants that used the related biocide to preserve the products. […]
BM1 and a diamine selected from 1,3-bis(aminomethyl)cyclohexane (hereinafter “AMC”), 1,3-bis(aminomethyl)benzene (hereinafter “AMB”), 1,7-diaminoheptane (hereinafter “DAH”), and 1,8-diamionoocatane (hereinafter “DAO”) were introduced into 50 g samples of each of the slurries indicated in Table 4 in the listed amounts (quoted in ppm based on the weight of the aqueous phase in the slurry). The samples were then stored at 30° C. for 72 hours. References were prepared according to the same protocol but in absence of the respective diamine used and in the absence of the respective diamine and BM1. […]

Test [2] has as its system rOPP bacteria culture (OPP-resistant). Description: Biocidal activity in ground natural calcium carbonate slurry (GNCCS), Total Viable Count after inoculation with rOPP culture. The test is classed as cell-based, Pseudomonas putida and Pseudomonas stutzeri. The note with it: one inoculation. On the procedure:
as §1
OPP, in the form of an aqueous solution having a concentration of 45%, and one of AMC, AMB, DAH, and DAO were introduced into 50 g samples of each of the slurries indicated in Table 6 in the listed amounts (quoted in ppm active content based on the weight of the aqueous phase in the slurry). References were prepared according to the same protocol but in absence of any one of AMC, AMB, DAH, and DAO. A reference was prepared according to the same protocol but in absence of AMC, AMB, DAH, and DAO and in absence of any biocide.
The slurry samples were then inoculated with 1 ml of a mixture of Pseudomonas species containing predominantly Pseudomonas putida and Pseudomonas stutzeri that are resistant to OPP. Each of the samples was incubated at 30° C. for 72 hours. Thereafter, a 1:10 dilution in phosphate buffered saline (PBS) was plated on plate count agar (PCA). These plates were incubated at 30° C. and analysed after […]. […]

The structures appear in SMILES notation. Where two headings read alike, the source gives them in different places.

In the case of `NCCN` [EDA, ethylene diamine], the TVC in test [1] (EDA 1050 ppm on aqueous phase alone) was 1 × 10^6 cfu/ml.

Take `Oc1ccccc1-c1ccccc1` [OPP, orthophenylphenol, reference compound]: the TVC in test [2] (OPP 250 ppm alone) is given as 1 × 10^6 cfu/ml.

For `NCCCCCCCCN` [DAO, 1,8-diamionoocatane], the TVC is 1 × 10^6 cfu/ml in test [1] (diamine 750 ppm alone) and 1 × 10^6 cfu/ml in test [2] (diamine 750 ppm alone, no OPP).

In the case of `NCC1CCCC(CN)C1` (stereo not shown) [AMC, 1,3-bis(aminomethyl)cyclohexane], the TVC in test [1] (diamine 750 ppm alone) is recorded as 1 × 10^6 cfu/ml.

In the case of `NCc1cccc(CN)c1` [AMB, 1,3-bis(aminomethyl)benzene], in test [1] (diamine 750 ppm alone), the TVC is reported as 1 × 10^6 cfu/ml.

Take `NCCCCCCCN` [DAH, 1,7-diaminoheptane]: the TVC in test [1] (diamine 750 ppm alone) is listed as 1 × 10^6 cfu/ml.

The values are drawn from patent US20140288188A1, “Process for Stabilizing Bacterial Content of Aqueous Ground Natural Calcium Carbonate and/or Precipitated Calcium Carbonate and/or Dolomite and/or Surface-Reacted Calcium Carbonate-Comprising Mineral Preparations” (priority 2011, published 2014).
